The values that follow come from patent US7939534B2, “Certain chemical entities, compositions, and methods” (Cytokinetics, Inc., priority 2006, dated 2011).

Several values for one entry are separate records, joined by “and”; a condition that tells them apart may be missing. Identical values can stand only once.

For the assay, the target named is T1, chicken gizzard smooth muscle myosin subfragment-1 chemically crosslinked to either cardiac or skeletal actin (Gallus gallus, UniProt P10587).
T1 construct: chicken gizzard smooth muscle myosin subfragment-1; from tissue; host or cells: chicken gizzard
The assay can be described thus: Dose dependent smooth muscle myosin ATPase modulation (pyruvate kinase/horseradish peroxidase/pyruvate oxidase-coupled ATPase assay). The assay is classed as biochemical. The note with it: read-out: IC50 Arithmetic Mean. On the procedure: In Vitro Model of Dose Dependent Smooth Muscle Myosin Atpase Modulation
Screening assays were performed using a pyruvate kinase and lactate dehydrogenase-coupled ATPase assay containing the following reagents: Potassium PIPES (50 mM ), MgCl2 (3 mM ), KCl (100 mM ), ATP (0.15 mM ), DTT (1 mM ), BSA (0.1 mg/ml), NADH (0.5 mM ), PEP (1.5 mM ), pyruvate kinase (4 U/ml), lactate dehydrogenase (8 U/ml), and antifoam (50 ppm) (concentrations expressed are final assay concentrations). The pH was adjusted to 6.80 at 22° C. by addition of potassium hydroxide. Lead optimization assays were performed with a more sensitive pyruvate kinase/horseradish peroxidase/pyruvate oxidase-coupled ATPase assay containing the following reagents: Potassium PIPES (12 mM ), MgCl2 (2 mM ), KCl (100 mM ), ATP (0.15 mM ), BSA (0.05 mg/ml), potassium phosphate (2 mM ), amplex red (0.1 mM ), PEP (0.1 mM ), pyruvate kinase (4 U/ml), horseradish peroxidase (0.5 U/ml), pyruvate oxidase (0.5 U/ml), and antifoam (50 ppm) (concentrations expressed are final assay concentrations). The pH was adjusted to 7.00 at 22° C. by addition of potassium hydroxide.
The protein components specific to this assay are chicken gizzard smooth muscle myosin subfragment-1 that has been chemically crosslinked to either cardiac or skeletal actin using an excess of 1-Ethyl-3-[3-dimethylaminopropyl]carbodiimide hydrochloride and N-hydroxysuccinimide. The exact concentration of the crosslinked smooth muscle myosin in the assay is determined empirically, by titration to achieve a desired rate of ATP hydrolysis. The concentration varies between protein preparations due to variations in the fraction of active molecules in each preparation.
Compound dose response assays are performed by first preparing a dilution series of test compound, each with an assay mixture containing potassium PIPES, MgCl2, KCl, ATP, BSA, potassium phosphate, amplex red, PEP, crosslinked smooth muscle actomyosin (subfragment-1), antifoam, and water. The assay is started by adding an equal volume of solution containing potassium Pipes, MgCl2, KCl, BSA, potassium phosphate, pyruvate kinase, horseradish peroxidase, pyruvate oxidase, antifoam, and water. ATP hydrolysis is monitored by measuring the fluorescence of amplex red (excitation at 480 nm, emission at 615 nm). The resulting dose response curve is fit by the 4 parameter equation y=Bottom+((Top−Bottom)/(1+((IC50/X)^Hill))). The IC50 is defined as the concentration at which ATPase activity is midway between the top and bottom of the dose response curve.
As to `CN(C)C(=O)c1ccc(N2CCCCC2=O)nc1NCCc1cccc(F)c1` [Compound 26, (2-{[2-(3-fluorophenyl)ethyl]amino}-6-(2-oxopiperidyl)(3-pyridyl))-N,N-dimethylcarboxamide], the half-maximal inhibitory concentration (IC50) came to 53.4 µM.

Regarding `NCc1ncccc1CNC(=O)c1ccc(N2CC[C@@H](F)C2)nc1NCCc1cccc(F)c1` [Compound 39, (6-((3R)-3-fluoropyrrolidinyl)-2-{[2-(3-fluorophenyl)ethyl]amino}(3-pyridyl))-N-{[2-(aminomethyl)(3-pyridyl)]methyl}carboxamide], the IC50 turned out to be 0.0313 µM.

As for `NCc1ncccc1CNC(=O)c1ccc(N2CCCC2)nc1NCCc1cccc(F)c1` [Compound 41, N-{[2-(aminomethyl)(3-pyridyl)]methyl}(2-{[2-(3-fluorophenyl)ethyl]amino}-6-pyrrolidinyl(3-pyridyl))carboxamide], the IC50 came to 0.0297 µM.

Consider `CC(C)(C)OC(=O)NC1CCN(c2ccc(C(=O)NCc3cccnc3)c(NCCc3cccc(F)c3)n2)C1` (stereo not drawn) [Compound 91, (tert-butoxy)-N-[1-(6-{[2-(3-fluorophenyl)ethyl]amino}-5-[N-(3-pyridylmethyl)carbamoyl](2-pyridyl))pyrrolidin-3-yl]carboxamide], for which the IC50 was 18.5 µM.

Consider `CCOC(=O)C1CCN(c2ccc(C(=O)NCc3cccnc3)c(NCCc3cccc(F)c3)n2)CC1` [Compound 112, ethyl 1-(6-{[2-(3-fluorophenyl)ethyl]amino}-5-[N-(3-pyridylmethyl)carbamoyl]-2-pyridyl)piperidine-4-carboxylate], for which the IC50 was found to be 1.56 µM.

Consider `NC(=O)CNC(=O)c1ccc(N2CC[C@@H](O)C2)nc1NCCc1cccc(F)c1` [Compound 2, (6-((3R)-3-hydroxypyrrolidinyl)-2-{[2-(3-fluorophenyl)ethyl]amino}(3-pyridyl))-N-(carbamoylmethyl)carboxamide], for which the IC50 turned out to be 11.4 µM.

Turning to `O=C(NCc1cccnc1)c1ccc(N2CCNCC2)nc1NCCc1cccc(F)c1` [Compound 116, (2-{[2-(3-fluorophenyl)ethyl]amino}-6-piperazinyl(3-pyridyl))-N-(3-pyridylmethyl)carboxamide], the IC50 was 31.8 µM.

For `NCc1ncccc1CNC(=O)c1cc(F)c(N2CC[C@@H](F)C2)nc1NCCc1cccc(F)c1` [Compound 53, (6-((3R)-3-fluoropyrrolidinyl)-5-fluoro-2-{[2-(3-fluorophenyl)ethyl]amino}(3-pyridyl))-N-{[2-(aminomethyl)(3-pyridyl)]methyl}carboxamide], the IC50 stood at 0.023 µM.

With `CNC(=O)CNC(=O)c1ccc(N2CC[C@@H](O)C2)nc1NCCc1cccc(F)c1` [2-[(6-((3R)-3-hydroxypyrrolidinyl)-2-{[2-(3-fluorophenyl)ethyl]amino}(3-pyridyl))carbonylamino]-N-methylacetamide], the concentration for half-maximal inhibition (IC50) was 3.44 µM and 3.69 µM.

With `NCc1cccc(CNC(=O)c2ccc(N3CCCCC3)nc2NCCc2cccc(F)c2)n1` [Compound 101, N-{[6-(aminomethyl)(2-pyridyl)]methyl}(2-{[2-(3-fluorophenyl)ethyl]amino}-6-piperidyl(3-pyridyl))carboxamide], the IC50 turned out to be 0.334 µM.

On to `O=C(NCc1cccnc1)c1ccc(N2CCS(=O)(=O)CC2)nc1NCCc1cccc(F)c1` [Compound 122, (6-(1,1-dioxo(1,4-thiazaperhydroin-4-yl))-2-{[2-(3-fluorophenyl)ethyl]amino}(3-pyridyl))-N-(3-pyridylmethyl)carboxamide], for which the IC50 stood at 29.9 µM.

For the compound `CNC(=O)CNC(=O)c1ccc(C2=CCN(C(=O)OC)CC2)nc1NCCc1cccc(F)c1` [Compound 43, methyl 4-(6-{[2-(3-fluorophenyl)ethyl]amino}-5-{N-[(N-methylcarbamoyl)methyl]carbamoyl}-2-pyridyl)-1,2,5,6-tetrahydropyridinecarboxylate], the half-inhibitory concentration (IC50) stood at 0.627 µM.

As for `N[C@H]1CCN(c2ccc(C(=O)NCc3cccnc3)c(NCCc3cccc(F)c3)n2)C1` [Compound 30, (6-((3S)-3-aminopyrrolidinyl)-2-{[2-(3-fluorophenyl)ethyl]amino}(3-pyridyl))-N-(3-pyridylmethyl)carboxamide], the half-inhibitory concentration (IC50) was determined as 28.4 µM.

On to `CNC(=O)C1CCN(c2ccc(C(=O)NCc3cccnc3)c(NCCc3cccc(F)c3)n2)CC1` [Compound 114, (2-{[2-(3-fluorophenyl)ethyl]amino}-6-[4-(N-methylcarbamoyl)piperidyl](3-pyridyl))-N-(3-pyridylmethyl)carboxamide], for which the 50% inhibitory concentration (IC50) came out at 11 µM.

Take `NCc1cccc(CNC(=O)c2ccc(N3CCCC3)nc2NCCc2cccc(F)c2)n1` [Compound 98, N-{[6-(aminomethyl)(2-pyridyl)]methyl}(2-{[2-(3-fluorophenyl)ethyl]amino}-6-pyrrolidinyl(3-pyridyl))carboxamide]: the half-maximal inhibitory concentration (IC50) turned out to be 0.213 µM.

Turning to `CS(=O)(=O)C1CCN(c2ccc(C(=O)NCc3cccnc3)c(NCCc3cccc(F)c3)n2)C1` (stereo not drawn) [Compound 107, (2-{[2-(3-fluorophenyl)ethyl]amino}-6-[3-(methylsulfonyl)pyrrolidinyl](3-pyridyl))-N-(3-pyridylmethyl)carboxamide], the 50% inhibitory concentration (IC50) worked out at 11.5 µM.

In the case of `O=C(NCc1cccnc1)c1ccc(N2CCC(O)(c3ccccc3)CC2)nc1NCCc1cccc(F)c1` [Compound 111, (2-{[2-(3-fluorophenyl)ethyl]amino}-6-(4-hydroxy-4-phenylpiperidyl)(3-pyridyl))-N-(3-pyridylmethyl)carboxamide], the IC50 amounted to 16.7 µM.

On to `CC(C)(C)OC(=O)N1CCC[C@@H]1CNC(=O)c1cc(F)c(N2CCCC2)nc1NCCc1cccc(F)c1` [Compound 80, tert-butyl (2R)-2-{[(5-fluoro-2-{[2-(3-fluorophenyl)ethyl]amino}-6-pyrrolidinyl(3-pyridyl))carbonylamino]methyl}pyrrolidinecarboxylate], for which the 50% inhibitory concentration (IC50) amounted to 6.86 µM.

With `CN(C)C(=O)c1ccc(N2CC[C@@H](O)C2)nc1NCCc1cccc(F)c1` [Compound 4, (6-((3R)-3-hydroxypyrrolidinyl)-2-{[2-(3-fluorophenyl)ethyl]amino}(3-pyridyl))-N,N-dimethylcarboxamide], the half-inhibitory concentration (IC50) turned out to be 71.3 µM.

For `O=C(NCc1cccnc1)c1ccc(C2=CCCCC2)nc1NCCc1cccc(F)c1` [Compound 67, (6-cyclohex-1-enyl-2-{[2-(3-fluorophenyl)ethyl]amino}(3-pyridyl))-N-(3-pyridylmethyl)carboxamide], the half-maximal inhibitory concentration (IC50) stood at 0.117 µM.

On to `O=C(NCc1cccnc1)c1ccc(N2CCC(C(F)(F)F)C2)nc1NCCc1cccc(F)c1` (stereo not drawn) [Compound 99, (2-{[2-(3-fluorophenyl)ethyl]amino}-6-[3-(trifluoromethyl)pyrrolidinyl](3-pyridyl))-N-(3-pyridylmethyl)carboxamide], for which the half-inhibitory concentration (IC50) stood at 2.49 µM.

`O=C(NCc1cccnc1)c1ccc(N2CCC[C@@H]2CO)nc1NCCc1cccc(F)c1` [Compound 88, (6-[(2R)-2-(hydroxymethyl)pyrrolidinyl]-2-{[2-(3-fluorophenyl)ethyl]amino}(3-pyridyl))-N-(3-pyridylmethyl)carboxamide]: the IC50 came to 10.5 µM.

With `CNC(=O)CNC(=O)c1ccc(N2CCC(F)C2)nc1NCCc1cccc(F)c1` (stereo in doubt) [Compound 93, 2-[(6-((3S)-3-fluoropyrrolidinyl)-2-{[2-(3-fluorophenyl)ethyl]amino}(3-pyridyl))carbonylamino]-N-methylacetamide], the half-maximal inhibitory concentration (IC50) came to 1.06 µM.

On to `O=C(NCc1cccnc1)c1ccc(N2CCOC(CO)C2)nc1NCCc1cccc(F)c1` (stereo not drawn) [Compound 119, (2-{[2-(3-fluorophenyl)ethyl]amino}-6-[2-(hydroxymethyl)morpholin-4-yl](3-pyridyl))-N-(3-pyridylmethyl)carboxamide], for which the half-maximal inhibitory concentration (IC50) was determined as 7.21 µM.

As for `O=C(NCc1cccnc1)c1ccc(N2CCCC2)nc1NCCc1ccccn1` [Compound 33, {2-[(2-(2-pyridyl)ethyl)amino]-6-pyrrolidinyl(3-pyridyl)}-N-(3-pyridylmethyl)carboxamide], the IC50 amounted to 32.8 µM.

For the compound `Nc1ccc(CNC(=O)c2ccc(N3CCCC3)nc2NCCc2cccc(F)c2)cn1` [Compound 12, N-[(6-amino(3-pyridyl))methyl](2-{[2-(3-fluorophenyl)ethyl]amino}-6-pyrrolidinyl(3-pyridyl))carboxamide], the concentration for half-maximal inhibition (IC50) turned out to be 0.243 µM.

As to “N-{[(2R)-1-(4-aminobutanoyl)pyrrolidin-2-yl]methyl}(5-fluoro-2-{[2-(3-fluorophenyl)ethyl]amino}-6-pyrrolidinyl(3-pyridyl))carboxamide [Compound 74]”, the 50% inhibitory concentration (IC50) was determined as 0.308 µM.
